Laboratory results as given in PubChem BioAssay AID1250 (SRMLSC, 2008).

Test system: BSR cells, Bluetongue virus CPE, ATP luminescence, 72 h
Assay: inhibitors of Bluetongue virus cytopathic effect, confirmation, arbovirus, BSR cells (AID 1250)

Structure (SMILES) | IC50 [µM]
COCCCn1c(N)c(-c2nc3ccccc3n2C)c2nc3ccccc3nc21 | 7.62
COc1cc(C(=O)Nc2nc(-c3ccc(F)cc3)cs2)ccc1OCC(=O)N1CCOCC1 | 10.6
O=C(Nc1ccccc1)Nc1snnc1C(=O)Nc1cccc(O)c1 | 19
Cc1cccc(C)c1-n1cccc1/C=C1/C(=N)N2C(=NC1=O)SN=C2S(C)(=O)=O | 16.4
COc1ccc(NC(=O)c2c[nH]n3c(=O)cc(C4CCN(C(=O)OC(C)(C)C)CC4)nc23)cc1Cl | 12.2
O=c1oc(/C=C/c2ccccc2)nc2sc3c(c12)CCC3 | 8.92
Nc1nc(-c2ccccc2)c(-c2ccc([N+](=O)[O-])cc2)s1 | 5.6
Oc1ccc(Nc2nc(NCC3CCCO3)c3ccccc3n2)cc1 (stereo unspecified) | 20.8
Cc1ccc(N2C(=O)/C(=C\c3ccc(C(C)C)cc3)N=C2SC2CCOC2=O)cc1 (stereo unspecified) | 12.1
COc1cc([N+](=O)[O-])ccc1NC(=O)CC1SC(=Nc2ccc(F)cc2)N(CCC2=CCCCC2)C1=O (stereo unspecified) | 0.108
Cc1ccc(-c2csc(NC(=O)C3=NN(c4ccccc4)C(=O)CC3)n2)cc1 | 11.1
COc1cc(C(=O)Nc2nc(-c3ccc(C)cc3)cs2)ccc1OCC(=O)N1CCOCC1 | 4
Cc1nc(CS(=O)c2ccc(Cl)cc2)cc(NCc2ccc(Cl)cc2Cl)n1 (stereo unspecified) | 9.42
O=c1[nH]n2c(=O)c3c([nH]c2c1N=Nc1cccc(Cl)c1)CCCC3 | 18.5
COC(=O)c1ccccc1NC(=O)CN1CCC(n2nnc3cc(F)ccc32)CC1 | 0.178
O=c1[nH]n2c(=O)c3c([nH]c2c1N=Nc1cccc(C(F)(F)F)c1)CCCC3 | 19.5
Oc1ccc(Br)cc1-c1cc(-c2ccc(Cl)cc2)n[nH]1 | 17.5
CCNc1nc(SCCOc2ccc(Cl)cc2Cl)nc(N(C)C)n1 | 5.92
C=CCn1c(CNC(=O)c2cccs2)nnc1SCc1ccc(Cl)cc1Cl | 11
C(=N\Nc1nc(-c2ccccc2)cs1)/c1cccs1 | 15.5

Structure (SMILES) | IC50 [µM]
COc1ccc(NC(=O)c2cc3cccc(OC)c3oc2=Nc2ccc(C(=O)O)cc2)cc1OC | 13.3
Cn1c(-c2c(N)n(-c3ccccc3)c3nc4ccccc4nc23)nc2ccccc21 | 2.42
Cc1nn(-c2ccccc2)c(Cl)c1/C=N/Nc1ccc(Cl)c(C(=O)O)c1 | 14.5
COc1ccc(-c2csc(NC(=O)c3ccco3)n2)cc1 | 19.3
Cc1nc(Nc2ccc3c(c2)OCCO3)c2nnn(Cc3ccccc3Cl)c2n1 | 20.8
O=C(/C=C/c1ccccc1)Nc1scc(-c2ccccc2)c1C(=O)O | 3.06
CC(=O)OC[C@H]1O[C@@H](n2ncc(=O)[nH]c2=O)[C@H](OC(C)=O)[C@@H]1OC(C)=O | 9.79
CC(C)c1ccc(-c2csc(NC(=O)c3cccs3)c2C(=O)O)cc1 | 11.1
O=c1oc(-c2cc3ccccc3o2)nc2sc3c(c12)CCCC3 | 4.59
Cc1ccc(-c2csc(NC(=O)c3cccs3)n2)cc1 | 5
O=C(O)c1ccc(N2C(=O)/C(=C/c3ccc(-c4ccc([N+](=O)[O-])cc4)o3)C=C2c2ccccc2)cc1 | 5.33
O=C(/C=C/c1ccco1)Nc1sc2c(c1C(=O)O)CCC2 | 17
O=C(CSc1nc(-c2ccccc2)nc2c1Cc1ccccc1O2)Nc1ccc(C(=O)O)cc1 | 17.5
CC(C)Sc1nsc2nc(=O)c(/C=C3\C=Nc4ccccc43)c(N)n12 | 10.3
COc1ccc(-c2csc(NC(=O)C3=NN(c4ccccc4)C(=O)CC3)n2)cc1 | 20.7
CC(C)Cc1csc(NC(=O)c2ccccc2Cl)c1C(=O)O | 20.6
CCOc1ccc(-c2cc3nc(C4CCN(C(=O)OC(C)(C)C)CC4)c(C(=O)O)cn3n2)cc1 | 19.8
O=C(Nc1nc(-c2ccc(Cl)cc2Cl)cs1)c1ccc(OCC2CCCO2)cc1 (stereo unspecified) | 5.08
COc1ccc(C2C=C(c3ccc(C)cc3)Nc3ncnn32)cc1 (stereo unspecified) | 13

Further lines, results first:

IC50 [µM] | Structure (SMILES)
9.98 | COc1cccc(C(=O)Nc2nc(-c3ccc4c(c3)OCO4)cs2)c1
2.28 | N#Cc1sc2nc(-c3cccs3)cc(-c3ccc(F)cc3)c2c1N
20.6 | CCOc1cc(/C=C(/C#N)c2ccc(Cl)cc2)cc(Cl)c1OCC(=O)O
0.524 | C/C(=N\NC(=O)c1ccccc1C)c1ccc(NC(=O)c2cccs2)cc1
13.2 | O=C(O)c1cccc(N/N=C/C2=C(Cl)c3cc(Cl)ccc3SC2)c1
1.4 | CC(C(=O)Nc1ccccc1-c1ccccc1)N1CCN(S(=O)(=O)c2ccccc2)CC1 (stereo unspecified)
20.9 | CCOc1ccc(C(=O)Nc2cc(NC(=O)c3ccc(OCC)c(Cl)c3)cc(C(=O)O)c2)cc1Cl
0.416 | Cc1cc(C)c2cc(CN(Cc3cccnc3)C(=O)c3ccc(F)cc3)c(Cl)nc2c1
7.63 | COc1ccc(Cn2c(C)c(C)c(C#N)c2NC(=O)Nc2cccc(C)c2)cc1
16.6 | COc1ccc(CN(C(=O)c2cc3ccccc3oc2=O)C2CCCCC2)cc1OC
6.24 | O=C(/C=C/c1cccs1)Nc1scc(-c2ccccc2)c1C(=O)O
4.9 | Cc1csc(NC(=O)c2c(O)c3c(n(CC(C)C)c2=O)CCCC3)n1
9.37 | CC(NC(=O)c1cccs1)c1nnc(SCc2ccc(Cl)cc2Cl)n1C (stereo unspecified)
14.4 | COc1ccc(Cl)cc1NC(=O)c1cc(-c2ccccc2O)n[nH]1
9.68 | CC1(c2ccc([N+](=O)[O-])cc2)CC(C)(C)N(C(=O)c2ccccc2)c2ccccc21 (stereo unspecified)
15.6 | CC(=O)Nc1cccc(Oc2ncnc3scc(-c4ccccc4)c23)c1
16.6 | CCOc1ccc(N=Nc2c(=O)[nH]n3c(=O)c4c([nH]c23)CCCC4)cc1
